What was measured:
[1] = system: LS174T cells; assay: fluorescent staining of cellular and intracellular membranes, confocal microscopy; format: cell-based
Experimental: Monolayer cultures were grown in RPMI 1640 medium (Gibco) supplemented with 10% fetal bovine serum (FBS) (Gibco), 1% L-glutamine (Gibco), 1% penicillin/streptomycin (Gibco) as an antibacterial agent and 0.1% amphotericin (Sigma) as an antifungal agent. The cultures were maintained at 37° C. in a CO2 incubator with humidified atmosphere, 5% CO2 and 95% air. Confluent cultures (80-90%) were used for experiments. The cells were then detached by trypsinization and incubation at 37° C. for 2-3 minutes. Fresh medium (10× to trypsin's volume) was added to inhibit trypsin action. The cell suspension was centrifuged at 500 g for three minutes. The supernatant was discarded and the pellet obtained was resuspended in fresh medium. Cells were counted and seeded onto sterile glass cover slips at 5×10^4 cells per slip and incubated overnight to adhere. ZnTnHex-4-PyPCl4 was added and the cells were incubated with the compound in the dark. The cells were then fixed with ice cold absolute ethanol added to a final concentration of 60%, and the plate containing the slips was kept on ice for 10 minutes. The cells were washed with PBS twice and the slips were transferred onto microscopic slides. Vectashield mounting medium from Vector Laboratories was used. The slides were examined using a Zeiss LSM 510 META confocal fluorescence microscope fitted with standard FITC, Rhodamine and DAPI filter sets.
LS174T cells were counted and seeded onto sterile glass cover slips at 5×10^4 cells per slip and incubated over-night to adhere. The dye was added to a final concentration of 0.5-2.5 μM and the cells were incubated with ZnTnHex-4-PyPCl4 in the dark for 15-30 minutes. The cells were then fixed with ice cold absolute ethanol added to a final concentration of 60%, and the plate containing the slips was kept on ice for 10 minutes. The cells were washed with PBS twice and the slips were transferred onto microscopic slides. […] The slides were examined using a Zeiss LSM 510 META confocal fluorescence microscope fitted with standard FITC, Rhodamine and DAPI filter sets.

[2] = solubility
[3] = system: cells; assay: harm to cells incubated with the fluorescent probe; conditions: 20 μM, shielded from light
[4] = storage stability of sterilized probe; conditions: refrigerated in the dark

## CCCCCC[n+]1ccc(C2=C3C=CC4=[N+]3[Zn]35[n]6c2ccc6C(c2cc[n+](CCCCCC)cc2)=C2C=CC(=[N+]23)C(c2cc[n+](CCCCCC)cc2)=c2ccc([n]25)=C4c2cc[n+](CCCCCC)cc2)cc1 [ZnTnHex-4-PyPCl4, Zn(II) meso-tetrakis(N-n-hexylpyridinium-4-yl)porphyrin tetrachloride]
[1]; LSI74T cells, 20 μM, 24 hours pre-incubation in the dark, FIG. 2
  subcellular localization: mitochondria, lysosomes, the ER and the plasma membrane
[1]; concentrations as low as about 0.5-2.5 μM
  time to stain cellular and intracellular membranes: ≤ 15 min
[1]; living mammalian cells
  concentration needed for staining membranes: 0.5 to 1 µM
[2]
  solubility in water: water soluble
[3]
  harm to cells: without harming cells
[4]
  storage stability: kept for months

From patent US9034596B1, “Method for fluorescent staining of cellular and intracellular membranes” (KUWAIT UNIVERSITY, priority 2014, dated 2015)
